According to ChEMBL document CHEMBL1134740, “3,28-Di-O-(dimethylsuccinyl)-betulin isomers as anti-HIV agents” (Bioorg Med Chem Lett, 2001):
pEC50, pIC50: −log10 of the molar value.

Key:
H9 [1] = assay: Evaluated for the anti-HIV activity against HIV-1 replication in H9 lymphocyte cells; type: functional, cell-based; details: Homo sapiens
H9 [2] = assay: Evaluated for the anti-HIV activity against HIV-1 replication in mock-infected H9 cells; type: functional, cell-based; details: Homo sapiens
[3] = Therapeutic Index (IC50/EC50) of the compound
H9 [4] = assay: Evaluated for the anti-HIV activity against HIV-1 replication in H9 lymphocyte cells; Toxic at all concentrations; type: functional, cell-based; details: Homo sapiens
[5] = Therapeutic Index (IC50/EC50) of the compound; Toxic at all concentrations

| SMILES | pEC50 (H9 [1]) | pIC50 (H9 [2]) | selectivity ratio [3] | Activity (H9 [4]) | Ratio [5] |
| --- | --- | --- | --- | --- | --- |
| C=C(C)[C@@H]1CC[C@]2(COC(=O)C(C)(C)CC(=O)O)CC[C@]3(C)[C@H](CC[C@@H]4[C@@]5(C)CC[C@H](OC(=O)CC(C)(C)C(=O)O)C(C)(C)[C@@H]5CC[C@]43C)[C@@H]12 | 9.06 | 4.43 | 42400 |  |  |
| C=C(C)[C@@H]1CC[C@]2(COC(=O)CC(C)(C)C(=O)O)CC[C@]3(C)[C@H](CC[C@@H]4[C@@]5(C)CC[C@H](OC(=O)CC(C)(C)C(=O)O)C(C)(C)[C@@H]5CC[C@]43C)[C@@H]12 | 7.70 | 4.47 | 1680 |  |  |
| C=C(C)[C@@H]1CC[C@]2(COC(=O)CC(C)(C)C(=O)O)CC[C@]3(C)[C@H](CC[C@@H]4[C@@]5(C)CC[C@H](O)C(C)(C)[C@@H]5CC[C@]43C)[C@@H]12 | > 6.74 | 4.43 | > 207 |  |  |
| C=C(C)[C@@H]1CC[C@]2(C(=O)O)CC[C@]3(C)[C@H](CC[C@@H]4[C@@]5(C)CC[C@H](OC(=O)CC(C)(C)C(=O)O)C(C)(C)[C@@H]5CC[C@]43C)[C@@H]12 [BEVIRIMAT] | > 9.46 |  | > 20000 |  |  |
| C=C(C)[C@@H]1CC[C@]2(COC(=O)C(C)(C)CC(=O)O)CC[C@]3(C)[C@H](CC[C@@H]4[C@@]5(C)CC[C@H](O)C(C)(C)[C@@H]5CC[C@]43C)[C@@H]12 | 6.74 | 4.54 | 159 |  |  |
| C=C(C)[C@@H]1CC[C@]2(COC(=O)C(C)(C)CC(=O)O)CC[C@]3(C)[C@H](CC[C@@H]4[C@@]5(C)CC[C@H](OC(=O)C(C)(C)CC(=O)O)C(C)(C)[C@@H]5CC[C@]43C)[C@@H]12 |  |  |  | Toxic at all concentrations | Toxic at all concentrations |
| C=C(C)[C@@H]1CC[C@]2(C(=O)O)CC[C@]3(C)[C@H](CC[C@@H]4[C@@]5(C)CC[C@H](OC(=O)COCC(=O)O)C(C)(C)[C@@H]5CC[C@]43C)[C@@H]12 |  |  | 1170 |  |  |
| C=C(C)[C@@H]1CC[C@]2(COC(=O)CC(C)(C)CC(=O)O)CC[C@]3(C)[C@H](CC[C@@H]4[C@@]5(C)CC[C@H](OC(=O)CC(C)(C)CC(=O)O)C(C)(C)[C@@H]5CC[C@]43C)[C@@H]12 |  |  | 21500 |  |  |
| C=C(C)[C@@H]1CC[C@]2(COC(=O)CC(C)(C)C(=O)O)CC[C@]3(C)[C@H](CC[C@@H]4[C@@]5(C)CC[C@H](OC(=O)C(C)(C)CC(=O)O)C(C)(C)[C@@H]5CC[C@]43C)[C@@H]12 | 6.40 | 4.41 | 96.5 |  |  |
